Measurements taken from patent US12540120B2, “Herbicidal compounds” (SYNGENTA CROP PROTECTION AG, priority 2019, dated 2026).

Experiments:
Format in all cases: in vivo
[1] = tested on: Amaranthus retoflexus (AMARE); assay: B1 Post-Emergence Efficacy—Test 1; conditions: post-emergence application, 1000 g/ha, evaluated after 13 days
Experimental: (§1) B1 Post-Emergence Efficacy—Test 1 Seeds of a variety of test species are sown in standard soil in pots:—Solanum nigrum (SOLNI), Amaranthus retoflexus (AMARE), Setaria faberi (SETFA), Echinochloa crus-galli (ECHCG), Ipomoea hederacea (IPOHE), Lolium perenne (LOLPE). After 8 days cultivation (post-emergence) under controlled conditions in a glasshouse (at 24/16° C., day/night; 14 hours light; 65% humidity), the plants are sprayed with an aqueous spray solution derived from the formulation of the technical active ingredient in acetone/water (50:50) solution containing 0.5% Tween 20 (polyoxyethylene sorbitan monolaurate, CAS RN 9005-64-5). Compounds are applied at 1000 g/ha. The test plants are then grown in a glasshouse under controlled conditions in a glasshouse (at 24/16° C., day/night; 14 hours light; 65% humidity) and watered twice daily. After 13 days, the test is evaluated for the percentage damage caused to the plant. The biological activities are assessed on a five point scale (5=80-100%; 4=60-79%; 3=40-59%; 2=20-39%; 1=0-19%). A blank value in the table is indicative that the compound was not tested on that species.

[2] = tested on: Echinochloa crus-galli (ECHCG); assay: B1 Post-Emergence Efficacy—Test 1; conditions: post-emergence application, 1000 g/ha, evaluated after 13 days
Experimental: as §1

[3] = tested on: Ipomoea hederacea (IPOHE); assay: B1 Post-Emergence Efficacy—Test 1; conditions: post-emergence application, 1000 g/ha, evaluated after 13 days
Experimental: as §1

Lolium perenne (LOLPE) [4] = assay: B1 Post-Emergence Efficacy—Test 1; conditions: post-emergence application, 1000 g/ha, evaluated after 13 days
Experimental: as §1

Setaria faberi (SETFA) [5] = assay: B1 Post-Emergence Efficacy—Test 1; conditions: post-emergence application, 1000 g/ha, evaluated after 13 days
Experimental: as §1

Solanum nigrum (SOLNI) [6] = assay: B1 Post-Emergence Efficacy—Test 1; conditions: post-emergence application, 1000 g/ha, evaluated after 13 days
Experimental: as §1

[7] = tested on: Amaranthus retoflexus (AMARE); assay: B2 Post-Emergence Efficacy—Test 2; conditions: post-emergence application, 250 g/ha, evaluated after 13 days (Test 2)
In short: (§2)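 Damage rated 13 days after treatment on a 1–5 scale (1=0-19%, 5=80-100%). Compounds were applied at 250 g/ha in acetone/water (50:50) with 0.5% Tween 20 to 8-day-old seedlings, grown under glasshouse conditions of 24/16 °C day/night, 14 h light, 65% humidity.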

[8] = tested on: Echinochloa crus-galli (ECHCG); assay: B2 Post-Emergence Efficacy—Test 2; conditions: post-emergence application, 250 g/ha, evaluated after 13 days (Test 2)
In short: as §2

[9] = tested on: Ipomoea hederacea (IPOHE); assay: B2 Post-Emergence Efficacy—Test 2; conditions: post-emergence application, 250 g/ha, evaluated after 13 days (Test 2)
In short: as §2

Lolium perenne (LOLPE) [10] = assay: B2 Post-Emergence Efficacy—Test 2; conditions: post-emergence application, 250 g/ha, evaluated after 13 days (Test 2)
In short: as §2

Setaria faberi (SETFA) [11] = assay: B2 Post-Emergence Efficacy—Test 2; conditions: post-emergence application, 250 g/ha, evaluated after 13 days (Test 2)
In short: as §2

Solanum nigrum (SOLNI) [12] = assay: B2 Post-Emergence Efficacy—Test 2; conditions: post-emergence application, 250 g/ha, evaluated after 13 days (Test 2)
In short: as §2

[13] = tested on: Amaranthus retoflexus (AMARE); assay: B4 Pre-Emergence Efficacy—Test 1; conditions: pre-emergence application, 1000 g/ha, evaluated after 13 days
Experimental: (§3) B4 Pre-Emergence Efficacy—Test 1 Seeds of a variety of test species were sown in standard soil in pots: Solanum nigrum (SOLNI), Amaranthus retoflexus (AMARE), Setaria faberi (SETFA), Echinochloa crus-galli (ECHCG), Ipomoea hederacea (IPOHE), Lolium perenne (LOLPE). After cultivation for one day (pre-emergence) under controlled conditions in a glasshouse (at 24/16° C., day/night; 14 hours light; 65% humidity), the plants were sprayed with an aqueous spray solution derived from the formulation of the technical active ingredient in acetone/water (50:50) solution containing 0.5% Tween 20 (polyoxyethelyene sorbitan monolaurate, CAS RN 9005-64-5). Compounds are applied at 1000 g/ha. The test plants were then grown in a glasshouse under controlled conditions (at 24/16° C., day/night; 14 hours light; 65% humidity) and watered twice daily. After 13 days, the test is evaluated for the percentage damage caused to the plant. The biological activities are assessed on a five point scale (5=80-100%; 4=60-79%; 3=40-59%; 2=20-39%; 1=0-19%). A blank value in the table is indicative that the compound was not tested on that species.

[14] = tested on: Echinochloa crus-galli (ECHCG); assay: B4 Pre-Emergence Efficacy—Test 1; conditions: pre-emergence application, 1000 g/ha, evaluated after 13 days
Experimental: as §3

[15] = tested on: Ipomoea hederacea (IPOHE); assay: B4 Pre-Emergence Efficacy—Test 1; conditions: pre-emergence application, 1000 g/ha, evaluated after 13 days
Experimental: as §3

Lolium perenne (LOLPE) [16] = assay: B4 Pre-Emergence Efficacy—Test 1; conditions: pre-emergence application, 1000 g/ha, evaluated after 13 days
Experimental: as §3

Setaria faberi (SETFA) [17] = assay: B4 Pre-Emergence Efficacy—Test 1; conditions: pre-emergence application, 1000 g/ha, evaluated after 13 days
Experimental: as §3

Solanum nigrum (SOLNI) [18] = assay: B4 Pre-Emergence Efficacy—Test 1; conditions: pre-emergence application, 1000 g/ha, evaluated after 13 days
Experimental: as §3

[19] = tested on: Amaranthus retoflexus (AMARE); assay: B5 Pre-Emergence Efficacy—Test 2; conditions: 250 g/ha, evaluated after 13 days
In short: (§4)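 Scores are percentage plant damage on a five-point scale (5=80-100%; 4=60-79%; 3=40-59%; 2=20-39%; 1=0-19%), taken 13 days after a pre-emergence spray of 250 g/ha. Sowing preceded spraying by one day; glasshouse at 24/16 °C, 65% humidity.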

Solanum nigrum (SOLNI) [20] = assay: B5 Pre-Emergence Efficacy—Test 2; conditions: 250 g/ha, evaluated after 13 days
In short: as §4

[21] = tested on: Echinochloa crus-galli (ECHCG); assay: B5 Pre-Emergence Efficacy—Test 2; design: key: 5-point scale: 5=80-100%, 4=60-79%, 3=40-59%, 2=20-39%, 1=0-19% damage; conditions: 250 g/ha, evaluated after 13 days
In short: as §4

[22] = tested on: Ipomoea hederacea (IPOHE); assay: B5 Pre-Emergence Efficacy—Test 2; design: key: 5-point scale: 5=80-100%, 4=60-79%, 3=40-59%, 2=20-39%, 1=0-19% damage; conditions: 250 g/ha, evaluated after 13 days
In short: as §4

Lolium perenne (LOLPE) [23] = assay: B5 Pre-Emergence Efficacy—Test 2; design: key: 5-point scale: 5=80-100%, 4=60-79%, 3=40-59%, 2=20-39%, 1=0-19% damage; conditions: 250 g/ha, evaluated after 13 days
In short: as §4

Setaria faberi (SETFA) [24] = assay: B5 Pre-Emergence Efficacy—Test 2; design: key: 5-point scale: 5=80-100%, 4=60-79%, 3=40-59%, 2=20-39%, 1=0-19% damage; conditions: 250 g/ha, evaluated after 13 days
In short: as §4

Cc1nn(C)c(=O)c(-c2c(F)ccc(Cl)c2CCc2ccc(C#N)cc2)c1O [Compound A-1.036, 4-[2-[6-chloro-3-fluoro-2-(5-hydroxy-2,6-dimethyl-3-oxo-pyridazin-4-yl)phenyl]ethyl]benzonitrile]
5 (5=80-100%): percentage damage caused to the plant, five point scale, AMARE [1] | percentage damage caused to the plant, five point scale, ECHCG [2] | percentage damage caused to the plant, five point scale, IPOHE [3] | percentage damage caused to the plant, five point scale, LOLPE (Lolium perenne (LOLPE) [4]) | percentage damage caused to the plant, five point scale, SETFA (Setaria faberi (SETFA) [5]) | percentage damage caused to the plant, five point scale, SOLNI (Solanum nigrum (SOLNI) [6]) | percentage damage caused to the plant, five point scale, AMARE [7] | percentage damage caused to the plant, five point scale, ECHCG [8] | percentage damage caused to the plant, five point scale, IPOHE [9] | percentage damage caused to the plant, five point scale, LOLPE (Lolium perenne (LOLPE) [10]) | percentage damage caused to the plant, five point scale, SETFA (Setaria faberi (SETFA) [11]) | percentage damage caused to the plant, five point scale, SOLNI (Solanum nigrum (SOLNI) [12]) | percentage damage caused to the plant, five point scale, AMARE [13] | percentage damage caused to the plant, five point scale, ECHCG [14] | percentage damage caused to the plant, five point scale, IPOHE [15] | percentage damage caused to the plant, five point scale, LOLPE (Lolium perenne (LOLPE) [16]) | percentage damage caused to the plant, five point scale, SETFA (Setaria faberi (SETFA) [17]) | percentage damage caused to the plant, five point scale, SOLNI (Solanum nigrum (SOLNI) [18]) | Control of weed species after pre-emergence application, AMARE (percentage damage, five point scale) [19] | Control of weed species after pre-emergence application, SOLNI (percentage damage, five point scale) (Solanum nigrum (SOLNI) [20]) | Control of weed species after pre-emergence application, ECHCG (percentage damage, five point scale) [21] | Control of weed species after pre-emergence application, IPOHE (percentage damage, five point scale) [22] | Control of weed species after pre-emergence application, LOLPE (percentage damage, five point scale) (Lolium perenne (LOLPE) [23]) | Control of weed species after pre-emergence application, SETFA (percentage damage, five point scale) (Setaria faberi (SETFA) [24])
